The values below come from ChEMBL document CHEMBL4483862, “Open-source discovery of chemical leads for next-generation chemoprotective antimalarials” (2018).

Usually IC50 stands for the concentration needed to halve the response being measured. What is called IC90 is the concentration needed for an effect of 90%.

This experiment relates to Plasmodium berghei. Description: Luciferase/luciferin-expressing antifolate-resistant parasites were used to infect a culture of HepG2 cells that were pre-incubated with compounds. Infected hepatocytes emit light due to the luciferase reaction. Assay results are presented as the percent inhibition of light emission compared to control. […]. The format is functional. Particulars: sporozoite; for IC90: read-out: LUCIFERASE INFECTION ASSAY - IC90.

Setting [1] is: read-out: LUCIFERASE INFECTION ASSAY - IC50.

With `Cc1ccc(-c2csc3[nH]c(=S)n(Cc4ccccc4)c(=O)c23)cc1`, the IC90 was more than 10 µM. Moreover, under “HEPG2TOX_HILL_SLOPE 0.131, HEPG2TOX_R_SQUARED 0.154, PBLUC_HILL_SLOPE 0.317, PBLUC_R_SQUARED 0.176, read-out: LUCIFERASE INFECTION ASSAY - IC50”, the IC50 worked out at 7.53 µM.

`OCCNCCNCc1c(OCc2ccc(F)cc2)ccc2ccccc12`: the 90% effect concentration (IC90) is more than 8.96 µM. In addition, the IC50 under setting [1] was more than 8.96 µM.

As for `Cc1cccc(Cn2nc(C(C)(C)C)cc2-c2nnc(SCc3c(F)cccc3Cl)n2C2CCCCC2)c1`, the IC90 is more than 5.98 µM. Further, the IC50 (FFLUC_HILL_SLOPE 2.05, FFLUC_R_SQUARED 0.435, PBLUC_HILL_SLOPE 2, PBLUC_R_SQUARED 0.623, read-out: LUCIFERASE INFECTION ASSAY - IC50) stood at 4.03 µM.

On to `CC(C)(C)c1cc(C(=O)/C(C#N)=N/Nc2cccc(Cl)c2)no1`, for which the IC90 was determined as 9.64 µM. Moreover, where the note is “HEPG2TOX_HILL_SLOPE 1.6, HEPG2TOX_R_SQUARED 0.978, PBLUC_HILL_SLOPE 25.6, PBLUC_R_SQUARED 0.306, read-out: LUCIFERASE INFECTION ASSAY - IC50”, the IC50 came out at 8.85 µM.

In the case of `CN1C(=O)N(Cc2ccc3ccccc3c2)C(=O)C12CCN(Cc1ccc(C#CC(C)(C)O)cc1)CC2`, the IC90 was 2.84 µM. Besides, the IC50 (HEPG2TOX_HILL_SLOPE 3.16, HEPG2TOX_R_SQUARED 0.979, PBLUC_HILL_SLOPE 9.91, PBLUC_R_SQUARED 0.437, read-out: LUCIFERASE INFECTION ASSAY - IC50) came to 2.27 µM.

Turning to `O=C(Nc1ncc(Cc2cc(F)cc(F)c2)s1)c1ccc2nc[nH]c2c1`, the IC90 worked out at 6.19 µM. Also, the IC50 under setting [1] stood at 2.9 µM.

`NNC(=S)c1cc(Cl)cc(Cl)c1`: the IC90 stood at 7.72 µM. Further, the IC50 (PBLUC_HILL_SLOPE 7.79, PBLUC_R_SQUARED 0.6, read-out: LUCIFERASE INFECTION ASSAY - IC50) came to 5.82 µM.

Regarding `O=C(NCCC1=CCCCC1)Nc1ccc(OC(F)(F)F)cc1`, the IC90 was more than 10.1 µM. Where the note is “PBLUC_HILL_SLOPE 77.5, PBLUC_R_SQUARED 0.175, read-out: LUCIFERASE INFECTION ASSAY - IC50”, the IC50 was more than 10.1 µM.

As for `CCOC(=O)Cc1ccc(NC(=O)c2ccc(C(C)(C)C)cc2)cc1`, the concentration for an effect of 90% (IC90) is 2.02 µM. In addition, the IC50 (HEPG2TOX_HILL_SLOPE 1.28, HEPG2TOX_R_SQUARED 0.763, PBLUC_HILL_SLOPE 1.21, PBLUC_R_SQUARED 0.784, read-out: LUCIFERASE INFECTION ASSAY - IC50) came to 0.329 µM.

Consider `CCc1cccc2c(C3=NNC(=Nc4ccc(S(=O)(=O)N5CCOCC5)cc4)SC3)c[nH]c12`, for which the IC90 is more than 10 µM. Also, for the setting “HEPG2TOX_HILL_SLOPE 14.9, HEPG2TOX_R_SQUARED 0.843, PBLUC_HILL_SLOPE 3.05, PBLUC_R_SQUARED 0.104, read-out: LUCIFERASE INFECTION ASSAY - IC50”, the IC50 is 5.65 µM.

In the case of `Cc1cc(C)c(S(=O)(=O)N2CCN(C(=O)/C(=C/c3cccc(F)c3)n3nnnc3C)CC2)c(C)c1`, the IC90 was found to be 3.73 µM. Further, under setting [1], the IC50 is 1.61 µM.

On to `CCN(CC)CCn1c(NC(=O)c2cc(-c3cccs3)nn2-c2ccccc2)nc2ccccc21`, for which the IC90 was more than 10 µM. Besides, the IC50 (PBLUC_HILL_SLOPE 2.69, PBLUC_R_SQUARED 0.0924, read-out: LUCIFERASE INFECTION ASSAY - IC50) worked out at 6.76 µM.

Turning to `CC(C)n1c(Sc2ncc([N+](=O)[O-])s2)nc2cc(Cl)ccc21`, the IC90 was determined as 8.83 µM. Under “FFLUC_HILL_SLOPE 44.5, FFLUC_R_SQUARED 0.755, HEPG2TOX_HILL_SLOPE 8.37, HEPG2TOX_R_SQUARED 0.175, PBLUC_HILL_SLOPE 4.42, PBLUC_R_SQUARED 0.266, read-out: LUCIFERASE INFECTION ASSAY - IC50”, the IC50 worked out at 5.37 µM.

Consider `COC(=O)C1=C(Sc2ccc(Cl)cc2)CSC1`, for which the IC90 is more than 11.5 µM. Besides, the IC50 (PBLUC_HILL_SLOPE 0.458, PBLUC_R_SQUARED 0.122, read-out: LUCIFERASE INFECTION ASSAY - IC50) was more than 11.5 µM.

Consider `CN(C(=O)CCN1C(=O)CCC1=O)c1ccccc1`, for which the 90% effect concentration (IC90) is more than 10 µM. Also, the IC50 under setting [1] was more than 10 µM.

In the case of `COc1ccc(-c2cncc(-c3ccc(N)cc3)n2)cc1`, the IC90 came out at 11.7 µM. For the same compound, the IC50 under setting [1] was 7.82 µM.

As to `COc1ccc(C(=O)Nc2cccc(/C=C3\S/C(=N\C4CCCC4)NC3=O)c2)cc1`, the IC90 was more than 10 µM. Moreover, the IC50 (HEPG2TOX_HILL_SLOPE 1.03, HEPG2TOX_R_SQUARED 0.894, PBLUC_HILL_SLOPE 3.32, PBLUC_R_SQUARED 0.257, read-out: LUCIFERASE INFECTION ASSAY - IC50) was determined as 5.96 µM.

On to `O=c1c2ccccc2sc2nc(C3CCCCC3)n(Cc3ccco3)c(=O)c12`, for which the IC90 was more than 8.41 µM. Moreover, where the note is “PBLUC_HILL_SLOPE 3.17, PBLUC_R_SQUARED 0.712, read-out: LUCIFERASE INFECTION ASSAY - IC50”, the IC50 was 4.57 µM.

As for `CN(C)c1ccc(-c2cc3c(Nc4ccc5c(c4)OCO5)nccc3n2C)cc1`, the IC90 came to 3.98 µM. Besides, the IC50 (HEPG2TOX_HILL_SLOPE 12.1, HEPG2TOX_R_SQUARED 0.137, PBLUC_HILL_SLOPE 13.7, PBLUC_R_SQUARED 0.564, read-out: LUCIFERASE INFECTION ASSAY - IC50) came to 3.39 µM.

For `Cc1cc(C(=O)COC(=O)c2ccccc2S(=O)(=O)N(C)c2ccccc2)c(C)n1C1CC1`, the IC90 was more than 10 µM. The IC50 (HEPG2TOX_HILL_SLOPE 8.61, HEPG2TOX_R_SQUARED 0.607, read-out: LUCIFERASE INFECTION ASSAY - IC50) was more than 10 µM.

As for `Clc1cccc(-c2cc3c(Nc4ccc5c(c4)OCCO5)nccc3[nH]2)c1`, the IC90 is more than 10 µM. The IC50 (HEPG2TOX_HILL_SLOPE 12.1, HEPG2TOX_R_SQUARED 0.71, PBLUC_HILL_SLOPE 1.15, PBLUC_R_SQUARED 0.766, read-out: LUCIFERASE INFECTION ASSAY - IC50) amounted to 1.75 µM.

Turning to `Cc1ccc(N/N=C/c2c3ccccc3cc3ccccc23)cc1Cl`, the IC90 came to 5.87 µM. Further, for the setting “HEPG2TOX_HILL_SLOPE 1.41, HEPG2TOX_R_SQUARED 0.742, PBLUC_HILL_SLOPE 1.25, PBLUC_R_SQUARED 0.657, read-out: LUCIFERASE INFECTION ASSAY - IC50”, the IC50 is 1.01 µM.

In the case of `Cc1nn(-c2ccccc2)c(Cl)c1/C=N/OCC(=O)Nc1cccc(C(F)(F)F)c1`, the IC90 is 9.91 µM. For the same compound, the IC50 (PBLUC_HILL_SLOPE 4.91, 2.77, PBLUC_R_SQUARED 0.190, 0.335, read-out: LUCIFERASE INFECTION ASSAY - IC50) was found to be 5.6 µM.

With `COc1cc(/C=N/Nc2ccc(C(F)(F)F)cn2)ccc1OS(=O)(=O)c1ccc(C)c([N+](=O)[O-])c1`, the IC90 is more than 10 µM. For the setting “FFLUC_HILL_SLOPE 3.31, FFLUC_R_SQUARED 0.75, read-out: LUCIFERASE INFECTION ASSAY - IC50”, the half-inhibitory concentration (IC50) is more than 10 µM.

As for `Cc1cccn2c(=O)cc(CN3C(=O)NC(C)(c4ccc(F)cc4)C3=O)nc12` (configuration not stated), the IC90 was more than 2 µM. Also, the IC50 (HEPG2TOX_HILL_SLOPE 5.95, HEPG2TOX_R_SQUARED 0.496, PBLUC_HILL_SLOPE 2.16, PBLUC_R_SQUARED 0.177, read-out: LUCIFERASE INFECTION ASSAY - IC50) was determined as 1.96 µM.

For the compound `O=C1COc2cc(C(=O)Oc3ccc4ccccc4c3Br)ccc2N1`, the IC90 is more than 10 µM. Moreover, the IC50 under setting [1] was more than 10 µM.

For `Cc1ccccc1N1C(=O)c2ccccc2C(Cc2ccc(C#N)cc2)(Cc2ccc(C#N)cc2)C1=O`, the concentration for an effect of 90% (IC90) is more than 10 µM. Also, for the setting “FFLUC_HILL_SLOPE 16.6, FFLUC_R_SQUARED 0.0411, PBLUC_HILL_SLOPE 0.772, PBLUC_R_SQUARED 0.177, read-out: LUCIFERASE INFECTION ASSAY - IC50”, the IC50 is more than 10 µM.

For the compound `CCOC(=O)c1c(C)[nH]c(C(=O)COC(=O)c2nc(-c3ccccc3)n(-c3ccccc3)n2)c1C`, the IC90 is more than 10 µM. The IC50 under setting [1] is more than 10 µM.

For the compound `CC(=O)c1c[nH]c(C(=O)OCC(=O)NCCc2ccc(C(C)C)cc2)c1`, the IC90 was more than 2 µM. The IC50 under setting [1] is more than 2 µM.

For the compound `CC(=O)c1c(C)[nH]c(C(=O)OCC(=O)NC2CCCc3ccccc32)c1C` (configuration not stated), the IC90 was more than 10 µM. Where the note is “HEPG2TOX_HILL_SLOPE 1.17, HEPG2TOX_R_SQUARED 0.444, read-out: LUCIFERASE INFECTION ASSAY - IC50”, the IC50 is more than 10 µM.

In the case of `Cc1ccc(Sc2ccc(/C=c3\s/c(=C\C(=O)c4ccc(Cl)cc4)[nH]c3=O)cc2[N+](=O)[O-])cc1`, the IC90 was more than 10 µM. Besides, under setting [1], the IC50 was more than 10 µM.

In the case of `Cc1cc(C(C)(C)C)ccc1OC(=O)c1sc2nc3n(c(=O)c2c1C)CCCCC3`, the IC90 is more than 10 µM. The IC50 under setting [1] was more than 10 µM.

For `CCOc1cc(/C=C2\COc3ccccc3C2=O)ccc1OCC(=O)N(C)C`, the IC90 is more than 10 µM. The IC50 under setting [1] is more than 10 µM.

For the compound `Cc1cnc(NC(=O)Nc2cccc(C(F)(F)F)c2)s1`, the IC90 was found to be 3.82 µM. Also, under “FFLUC_HILL_SLOPE 11.7, FFLUC_R_SQUARED 0.144, HEPG2TOX_HILL_SLOPE 3.17, HEPG2TOX_R_SQUARED 0.951, PBLUC_HILL_SLOPE 13.6, PBLUC_R_SQUARED 0.664, read-out: LUCIFERASE INFECTION ASSAY - IC50”, the IC50 worked out at 3.25 µM.

As to `O=C(c1cc2ccccc2cc1O)N1CCN(Cc2ccc3c(c2)OCO3)CC1`, the IC90 was 8.06 µM. In addition, the IC50 (HEPG2TOX_HILL_SLOPE 11.9, HEPG2TOX_R_SQUARED 0.324, PBLUC_HILL_SLOPE 2.98, 3.06, PBLUC_R_SQUARED 0.831, 0.940, read-out: LUCIFERASE INFECTION ASSAY - IC50) came to 4.38 µM.

`COc1ccc(S(=O)(=O)NN(C)c2nc3ccccc3nc2C(F)(F)F)cc1`: the IC90 was more than 8 µM. Under setting [1], the IC50 amounted to 5.18 µM.
